Measurements taken from US4826844A, “Substituted 1-(aralkyl-piperazinoalkyl) cycloalkanols” (American Home Products Corporation, priority 1987, dated 1989).

Tests used:
dopamine D2 receptors = target: T1, dopamine D2 receptors (Rattus norvegicus, UniProt P61169); assay: inhibition of 3H-haloperidol binding at dopamine D2 receptors in homogenized limbic brain tissue; settings: for inhibition at 1 µM: read-out: Receptor Binding D2 % Inhibition at 1 μM
T1 construct: found in homogenized limbic brain tissue; from tissue; host or cells: homogenized limbic brain tissue
Text: The actual percentage reduction of ^3 H-haloperidol binding is reported infra and the larger the number, the greater the potential for dopamine D2 receptor binding and antipsychotic activity.

5-HT1A receptor = target: T2, 5-HT1A receptor (Rattus norvegicus, UniProt P19327); assay: inhibition of [3H] 8-hydroxy-2-(di-n-propylamino)tetralin binding at 5-HT1A receptor sites; settings: rat hippocampal tissue
T2 construct: from tissue; host or cells: rat hippocampus
T2 sequence (P19327 1-422): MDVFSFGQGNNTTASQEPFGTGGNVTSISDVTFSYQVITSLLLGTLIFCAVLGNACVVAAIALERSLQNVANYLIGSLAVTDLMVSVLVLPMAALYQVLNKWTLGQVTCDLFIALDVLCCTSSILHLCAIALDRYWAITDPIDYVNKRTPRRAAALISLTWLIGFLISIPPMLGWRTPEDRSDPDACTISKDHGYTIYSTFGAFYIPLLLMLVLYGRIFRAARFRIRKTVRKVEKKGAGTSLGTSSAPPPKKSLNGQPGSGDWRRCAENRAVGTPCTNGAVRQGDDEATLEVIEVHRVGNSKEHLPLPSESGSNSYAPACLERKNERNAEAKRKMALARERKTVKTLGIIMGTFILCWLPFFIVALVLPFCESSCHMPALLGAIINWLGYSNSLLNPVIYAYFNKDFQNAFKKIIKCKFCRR
Text: 8-hydroxy-2-(di-n-propylamino)tetralin binding at 5-HT binding sites in rat hippocampal tissue, following the procedure of Hall et al., J. Neurochem., 44 1685 (1985).

[1] = tested on: synaptosomial uptake of norepinephrine; assay: inhibition of synaptosomial uptake of norepinephrine (3H-NE); assay type: biochemical; settings: for Neuronal Uptake NE % Inhibition at 10 μM / IC50: synaptosomes; for IC50: read-out: Neuronal Uptake NE IC50
Text: (§1) The pharmacological test data obtained for a representative number of compounds of this invention in accordance with the standard experimental test procedures disclosed above appear in the following table: […]

[2] = tested on: synaptosomial uptake of serotonin; assay: inhibition of synaptosomial uptake of serotonin (14C-5-HT); assay type: biochemical; settings: synaptosomes
Text: as §1

T1 sequence (P61169 whole entry): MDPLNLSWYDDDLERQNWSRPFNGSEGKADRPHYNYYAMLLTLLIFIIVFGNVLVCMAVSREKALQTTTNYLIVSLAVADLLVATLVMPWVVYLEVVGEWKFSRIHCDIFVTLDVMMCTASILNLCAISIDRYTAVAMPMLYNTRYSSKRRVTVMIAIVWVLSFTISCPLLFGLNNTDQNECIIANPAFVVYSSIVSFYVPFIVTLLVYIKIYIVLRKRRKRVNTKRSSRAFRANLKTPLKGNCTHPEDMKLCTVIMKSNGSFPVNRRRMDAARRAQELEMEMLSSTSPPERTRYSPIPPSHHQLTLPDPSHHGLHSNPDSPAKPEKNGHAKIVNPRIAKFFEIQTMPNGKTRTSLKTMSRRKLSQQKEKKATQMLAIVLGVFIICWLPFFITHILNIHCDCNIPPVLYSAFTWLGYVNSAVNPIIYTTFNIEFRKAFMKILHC

inhibition at 1 µM (dopamine D2 receptors; 3H-haloperidol) [%]	inhibition at 1 µM (5-HT1A receptor) [%]	SMILES	further results
77	93	COc1ccc(C(CCN2CCN(Cc3ccccc3OC)CC2)C2(O)CCCCC2)cc1 (stereo not drawn) [Example 13]	
89	93	COc1cccc(C(CCN2CCN(Cc3cccc(F)c3)CC2)C2(O)CCCCC2)c1 (stereo not drawn) [Example 7, 1-[3-[4-[(3-Fluorophenyl)methyl]-1-piperazinyl]-1-(3-methoxyphenyl)propyl]cyclohexanol]	
73	99	COc1ccc(C(CCN2CCN(Cc3cccc(OC)c3)CC2)C2(O)CCCCC2)cc1 (stereo not drawn) [Example 10]	
11		COc1ccc(C(CCN2CCN(c3ncccn3)CC2)C2(O)CCCCC2)cc1 (stereo not drawn) [Example 24]	
100	100	COc1ccc(C(CCN2CCN(Cc3cccc(C(F)(F)F)c3)CC2)C2(O)CCCCC2)cc1 (stereo not drawn) [Example 11, 1-[1-(4-Methoxyphenyl)-3-[4-[[3-(trifluoromethyl)phenyl]methyl]-1-piperazinyl]propyl]cyclohexanol]	dopamine D2 receptor affinity / binding potential (in words) (dopamine D2 receptors): typical D2 binding potential
15	57	COc1ccc(C(CCN2CCN(c3cncc(Cl)n3)CC2)C2(O)CCCCC2)cc1 (stereo not drawn) [Example 9, 1-[3-[4-(6-Chloro-2-pyrazinyl)-1-piperazinyl]-1(4-methoxyphenyl)propyl]cyclohexanol]	
25	63	COc1ccc(C(CCN2CCN(Cc3ccc(C(F)(F)F)cc3)CC2)C2(O)CCCCC2)cc1 (stereo not drawn) [Example 14, 1-[1-(4-Methoxyphenyl)-3-[4-[[4-(trifuloromethyl)phenyl]methyl]-1-piperazinyl]propyl]cyclohexanol]	
90	91	COc1cccc(C(CN2CCN(Cc3ccccc3)CC2)C2(O)CCCCC2)c1 (stereo not drawn) [Example 15, 1-[1-(3-Methoxyphenyl)-2-[4-(phenylmethyl)-1-piperazinyl]ethyl]cyclohexanol]	
32	94	OC1(C(CN2CCN(c3cccc(Cl)c3)CC2)c2cccc(Cl)c2)CCCCC1 (stereo not drawn) [Example 19, 1-[1-(3-Chlorophenyl)-2-[4-(3-chlorophenyl)-1-piperazinyl]ethyl]cyclohexanol]	
95	100	COc1ccc(C(CCN2CCN(Cc3cccc(Cl)c3)CC2)C2(O)CCCCC2)cc1 (stereo not drawn) [Example 12, 1-[3-[4-[(3-Chlorophenyl)methyl]-1-piperazinyl]-1-(4-methoxyphenyl)propyl]cyclohexanol]	
91	93	COc1cccc(C(CCN2CCN(Cc3ccccc3OC)CC2)C2(O)CCCCC2)c1 (stereo not drawn) [Example 6, 1-[1-(3-Methoxyphenyl)-3-[4-[(2-methoxyphenyl)methyl]-1-piperazinyl]propyl]cyclohexanol]	

Second part, the molecule before the results:

SMILES	inhibition at 1 µM (dopamine D2 receptors; 3H-haloperidol) [%]	inhibition at 1 µM (5-HT1A receptor) [%]	further results
COc1cccc(C(CCN2CCN(c3cncc(Cl)n3)CC2)C2(O)CCCCC2)c1 (stereo not drawn) [Example 3, 1-[3-[4-(6-Chloro-2-pyrazinyl)-1-piperazinyl]-1-(3-methoxyphenyl)propyl]cyclohexanol]	41		Ki (5-HT1A receptor): 122 nM
COc1cccc(C(CCN2CCN(Cc3cccc(Cl)c3)CC2)C2(O)CCCCC2)c1 (stereo not drawn) [Example 4, 1-[3-[4-[(3-Chlorophenyl)methyl]-1-piperazinyl]-1-(3-methoxyphenyl)propyl]cyclohexanol]	90	66	dopamine D2 receptor affinity / binding potential (in words) (dopamine D2 receptors): typical D2 binding potential
COc1cccc(C(CCN2CCN(Cc3ccc(Cl)cc3)CC2)C2(O)CCCCC2)c1 (stereo not drawn) [Example 5, 1-[3-[4-[(4-Chlorophenyl)methyl]-1-piperazinyl]-1-(3-methoxyphenyl)propyl]cyclohexanol]	51	97	
COc1cccc(C(CN2CCN(c3cccc(Cl)c3)CC2)C2(O)CCCCC2)c1 (stereo not drawn) [Example 18]	39	97	Neuronal Uptake NE % Inhibition at 10 μM [1]: 38%; Neuronal Uptake 5HT % Inhibition at 10 μM [2]: 62%
CN1CCN(CC(c2cccc(Cl)c2)C2(O)CCCCC2)CC1 (stereo not drawn) [Example 26, 1-[1-(3-Chlorophenyl)-2-(4-methyl-1-piperazinyl)ethyl]cyclohexanol]	26	0	antidepressant activity by inhibition of synaptosomial uptake of norepinephrine and/or serotonin (in words) [1]: selective antidepressant activity; IC50 [1]: 180 nM; Neuronal Uptake 5HT % Inhibition at 10 μM [2]: 33%
COc1cccc(C(CCN2CCN(Cc3ccccc3)CC2)C2(O)CCCCC2)c1 (stereo not drawn) [Example 1, 1-[1-(3-Methoxyphenyl)-3-[4-(phenylmethyl)-1-piperazinyl]propyl]cyclohexanol]			Ki (dopamine D2 receptors; 3H-haloperidol, read-out: Receptor Binding D2 Ki): 209 nM; Ki (5-HT1A receptor): 10 nM; affinity at 5-HT1A receptor binding sites (in words) (5-HT1A receptor): strong affinity at 5-HT1A receptor binding sites; IC50 [1]: 2030 nM; IC50 ([2]; read-out: Neuronal Uptake 5HT IC50): 390 nM
COc1cccc(C(CCN2CCN(c3ncccn3)CC2)C2(O)CCCCC2)c1 (stereo not drawn) [Example 2, 1-[1-(3-Methoxyphenyl)-3-[4-(2-pyrimidinyl)-1-piperazinyl]propyl]cyclohexanol]	59	78	
COc1ccc(C(CCN2CCN(Cc3ccccc3)CC2)C2(O)CCCCC2)cc1 (stereo not drawn) [Example 8, 1-[1-(4-Methoxyphenyl)-3-[4-(phenylmethyl)-1-piperazinyl]propyl]cyclohexanol]	55	99	IC50 [1]: 610 nM; Neuronal Uptake 5HT % Inhibition at 10 μM [2]: 67%
CN1CCN(CC(c2cccc(C(F)(F)F)c2)C2(O)CCCCC2)CC1 (stereo not drawn) [Example 27, 1-[2-(4-Methyl-1-piperazinyl)-1-[3-(trifluoromethyl)phenyl]ethyl]cyclohexanol]	0	5	Neuronal Uptake NE % Inhibition at 10 μM [1]: 86%; antidepressant activity by inhibition of synaptosomial uptake of norepinephrine and/or serotonin (in words) [1]: selective antidepressant activity; Neuronal Uptake 5HT % Inhibition at 10 μM [2]: 0%
